Source: patent US20100172889A1, “DEGRADABLE BIOMOLECULE COMPOSITIONS” (priority 2008, published 2010)

Tested on: cellulase C
Details: PHMB present in lyophilized cellulose film with cellulase C
Experimental: Two test materials (A and B) were prepared. Material A is a lyophilized cellulose film with cellulase C, and material B is a lyophilized cellulose film with cellulase C plus antiseptic Polyhexamethylene Biguanide (PHMB). Lyophilized cellulose samples A and B were incubated under conditions 1 and 2 for one month. Using media of tryptic soy agar, the samples were put in the solution to perform enzymatic degradation. On the 2nd, 8th, and 14th day, the degrading solution was taken out and plated on the agar media. The agar media plates were incubated for one month according to condition 3.

Polyhexamethylene Biguanide [PHMB]
reduction in cellulase enzyme activity: no observable reduction in cellulase enzyme activity
